According to ChEMBL document CHEMBL4507289, “Data for DCP probe GSM1” (2021):

Key:
[1] = molecular target: AP2-associated protein kinase 1 (Homo sapiens) (UniProt Q2M2I8); conditions: Compound concentration 1000.0 nM
[2] = tested on: Tyrosine-protein kinase ABL1 (Homo sapiens), P00519 [H396P]; conditions: Compound concentration 1000.0 nM
[3] = tested on: Tyrosine-protein kinase ABL1 (Homo sapiens), P00519 [T315I]; conditions: Compound concentration 1000.0 nM
[4] = molecular target: Activin receptor type-2A (Homo sapiens) (UniProt P27037); conditions: Compound concentration 1000.0 nM
Chain of Activin receptor type-2A (Homo sapiens) (P27037 whole entry): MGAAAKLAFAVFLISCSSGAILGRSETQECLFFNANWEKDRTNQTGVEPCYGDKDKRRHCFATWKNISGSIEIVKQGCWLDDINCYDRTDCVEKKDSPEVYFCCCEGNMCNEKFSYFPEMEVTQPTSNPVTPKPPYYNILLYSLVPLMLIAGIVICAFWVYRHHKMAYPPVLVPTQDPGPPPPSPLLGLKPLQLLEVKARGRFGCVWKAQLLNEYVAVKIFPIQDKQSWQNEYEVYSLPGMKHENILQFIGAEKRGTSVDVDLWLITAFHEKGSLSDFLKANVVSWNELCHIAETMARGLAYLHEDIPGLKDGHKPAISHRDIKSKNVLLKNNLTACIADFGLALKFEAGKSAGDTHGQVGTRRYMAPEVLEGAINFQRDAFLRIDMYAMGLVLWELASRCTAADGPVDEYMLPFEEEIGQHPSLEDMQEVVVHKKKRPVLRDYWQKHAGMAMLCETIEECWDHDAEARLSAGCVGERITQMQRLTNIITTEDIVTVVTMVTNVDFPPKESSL

[5] = molecular target: RAC-beta serine/threonine-protein kinase (Homo sapiens) (UniProt P31751); conditions: Compound concentration 1000.0 nM
[6] = molecular target: Tyrosine-protein kinase Blk (Homo sapiens) (UniProt P51451); conditions: Compound concentration 1000.0 nM
[7] = molecular target: Serine/threonine-protein kinase B-raf (Homo sapiens) (UniProt P15056); conditions: Compound concentration 1000.0 nM
[8] = molecular target: Calcium/calmodulin-dependent protein kinase type 1D (Homo sapiens) (UniProt Q8IU85); conditions: Compound concentration 1000.0 nM
[9] = molecular target: Cyclin-dependent kinase 13 (Homo sapiens) (UniProt Q14004); conditions: Compound concentration 1000.0 nM
[10] = molecular target: Cyclin-dependent kinase 7 (Homo sapiens) (UniProt P50613); conditions: Compound concentration 1000.0 nM
[11] = molecular target: Serine/threonine-protein kinase Chk2 (Homo sapiens) (UniProt O96017); conditions: Compound concentration 1000.0 nM
[12] = molecular target: Casein kinase I isoform alpha-like (Homo sapiens) (UniProt Q8N752); conditions: Compound concentration 1000.0 nM
[13] = molecular target: Casein kinase II subunit alpha' (Homo sapiens) (UniProt P19784); conditions: Compound concentration 1000.0 nM
[14] = molecular target: Death-associated protein kinase 3 (Homo sapiens) (UniProt O43293); conditions: Compound concentration 1000.0 nM
[15] = molecular target: Serine/threonine-protein kinase DCLK1 (Homo sapiens) (UniProt O15075); conditions: Compound concentration 1000.0 nM
[16] = tested on: Epidermal growth factor receptor (Homo sapiens), P00533 [UNDEFINED MUTATION]; conditions: Compound concentration 1000.0 nM
Chain of Epidermal growth factor receptor (Homo sapiens), P00533 [UNDEFINED MUTATION] (P00533 whole entry, looked up, change not shown): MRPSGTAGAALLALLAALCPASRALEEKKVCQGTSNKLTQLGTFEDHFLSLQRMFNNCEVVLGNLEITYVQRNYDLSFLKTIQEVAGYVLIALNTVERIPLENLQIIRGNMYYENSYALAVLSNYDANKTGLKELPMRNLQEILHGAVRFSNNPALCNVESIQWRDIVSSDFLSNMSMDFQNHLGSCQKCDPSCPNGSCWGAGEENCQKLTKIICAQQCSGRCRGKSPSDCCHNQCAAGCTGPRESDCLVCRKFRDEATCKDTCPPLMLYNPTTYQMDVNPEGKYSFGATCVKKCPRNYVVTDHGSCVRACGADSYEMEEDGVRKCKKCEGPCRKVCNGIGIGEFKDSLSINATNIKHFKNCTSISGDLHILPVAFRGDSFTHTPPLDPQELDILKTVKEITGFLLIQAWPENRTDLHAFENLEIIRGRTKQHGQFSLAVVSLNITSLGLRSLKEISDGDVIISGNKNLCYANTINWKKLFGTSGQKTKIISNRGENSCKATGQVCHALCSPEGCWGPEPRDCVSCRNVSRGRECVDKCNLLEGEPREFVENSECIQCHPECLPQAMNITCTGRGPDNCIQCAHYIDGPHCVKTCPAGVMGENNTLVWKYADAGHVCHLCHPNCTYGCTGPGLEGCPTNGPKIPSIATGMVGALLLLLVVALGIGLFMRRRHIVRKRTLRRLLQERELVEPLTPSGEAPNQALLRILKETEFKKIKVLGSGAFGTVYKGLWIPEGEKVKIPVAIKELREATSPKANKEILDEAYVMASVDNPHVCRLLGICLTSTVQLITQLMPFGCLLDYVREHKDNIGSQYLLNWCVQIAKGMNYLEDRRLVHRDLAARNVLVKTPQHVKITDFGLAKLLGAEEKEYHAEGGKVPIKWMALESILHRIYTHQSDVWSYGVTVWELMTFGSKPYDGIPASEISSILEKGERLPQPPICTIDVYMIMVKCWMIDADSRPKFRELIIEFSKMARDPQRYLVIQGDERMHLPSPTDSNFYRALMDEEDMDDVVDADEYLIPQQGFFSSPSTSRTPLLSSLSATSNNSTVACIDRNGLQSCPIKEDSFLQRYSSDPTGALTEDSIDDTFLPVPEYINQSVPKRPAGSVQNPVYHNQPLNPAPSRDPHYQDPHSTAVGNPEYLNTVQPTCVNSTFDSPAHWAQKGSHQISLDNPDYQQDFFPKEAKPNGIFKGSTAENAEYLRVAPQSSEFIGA

[17] = tested on: Epidermal growth factor receptor (Homo sapiens), P00533 [UNDEFINED MUTATION]; conditions: Compound concentration 1000.0 nM; remark: listed apart in the source
[18] = molecular target: Ephrin type-A receptor 1 (Homo sapiens) (UniProt P21709); conditions: Compound concentration 1000.0 nM
[19] = molecular target: Ephrin type-B receptor 1 (Homo sapiens) (UniProt P54762); conditions: Compound concentration 1000.0 nM
[20] = molecular target: Mitogen-activated protein kinase 4 (Homo sapiens) (UniProt P31152); conditions: Compound concentration 1000.0 nM
Chain of Mitogen-activated protein kinase 4 (Homo sapiens) (P31152 whole entry): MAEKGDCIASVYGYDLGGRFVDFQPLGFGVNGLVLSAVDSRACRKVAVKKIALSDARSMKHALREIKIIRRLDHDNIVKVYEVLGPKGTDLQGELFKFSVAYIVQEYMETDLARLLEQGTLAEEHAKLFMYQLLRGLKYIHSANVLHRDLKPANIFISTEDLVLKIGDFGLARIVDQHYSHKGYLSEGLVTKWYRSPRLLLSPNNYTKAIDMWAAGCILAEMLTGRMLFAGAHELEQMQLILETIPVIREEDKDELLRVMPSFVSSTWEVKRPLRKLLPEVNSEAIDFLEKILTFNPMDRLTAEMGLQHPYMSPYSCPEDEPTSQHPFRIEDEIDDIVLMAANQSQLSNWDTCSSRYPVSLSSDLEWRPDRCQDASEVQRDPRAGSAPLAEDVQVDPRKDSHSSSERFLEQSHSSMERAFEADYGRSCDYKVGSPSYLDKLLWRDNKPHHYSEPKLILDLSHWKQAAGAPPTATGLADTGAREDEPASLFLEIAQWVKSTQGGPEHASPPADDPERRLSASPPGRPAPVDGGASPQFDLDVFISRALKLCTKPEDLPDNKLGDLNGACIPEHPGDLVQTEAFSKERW

[21] = molecular target: Fibroblast growth factor receptor 3 (Homo sapiens) (UniProt P22607); conditions: Compound concentration 1000.0 nM
[22] = tested on: Fibroblast growth factor receptor 3 (Homo sapiens), P22607 [G697C]; conditions: Compound concentration 1000.0 nM
[23] = molecular target: Homeodomain-interacting protein kinase 2 (Homo sapiens) (UniProt Q9H2X6); conditions: Compound concentration 1000.0 nM
[24] = molecular target: Mitogen-activated protein kinase 9 (Homo sapiens) (UniProt P45984); conditions: Compound concentration 1000.0 nM
[25] = molecular target: Hepatocyte growth factor receptor (Homo sapiens) (UniProt P08581); conditions: Compound concentration 1000.0 nM
Chain of Hepatocyte growth factor receptor (Homo sapiens) (P08581 whole entry): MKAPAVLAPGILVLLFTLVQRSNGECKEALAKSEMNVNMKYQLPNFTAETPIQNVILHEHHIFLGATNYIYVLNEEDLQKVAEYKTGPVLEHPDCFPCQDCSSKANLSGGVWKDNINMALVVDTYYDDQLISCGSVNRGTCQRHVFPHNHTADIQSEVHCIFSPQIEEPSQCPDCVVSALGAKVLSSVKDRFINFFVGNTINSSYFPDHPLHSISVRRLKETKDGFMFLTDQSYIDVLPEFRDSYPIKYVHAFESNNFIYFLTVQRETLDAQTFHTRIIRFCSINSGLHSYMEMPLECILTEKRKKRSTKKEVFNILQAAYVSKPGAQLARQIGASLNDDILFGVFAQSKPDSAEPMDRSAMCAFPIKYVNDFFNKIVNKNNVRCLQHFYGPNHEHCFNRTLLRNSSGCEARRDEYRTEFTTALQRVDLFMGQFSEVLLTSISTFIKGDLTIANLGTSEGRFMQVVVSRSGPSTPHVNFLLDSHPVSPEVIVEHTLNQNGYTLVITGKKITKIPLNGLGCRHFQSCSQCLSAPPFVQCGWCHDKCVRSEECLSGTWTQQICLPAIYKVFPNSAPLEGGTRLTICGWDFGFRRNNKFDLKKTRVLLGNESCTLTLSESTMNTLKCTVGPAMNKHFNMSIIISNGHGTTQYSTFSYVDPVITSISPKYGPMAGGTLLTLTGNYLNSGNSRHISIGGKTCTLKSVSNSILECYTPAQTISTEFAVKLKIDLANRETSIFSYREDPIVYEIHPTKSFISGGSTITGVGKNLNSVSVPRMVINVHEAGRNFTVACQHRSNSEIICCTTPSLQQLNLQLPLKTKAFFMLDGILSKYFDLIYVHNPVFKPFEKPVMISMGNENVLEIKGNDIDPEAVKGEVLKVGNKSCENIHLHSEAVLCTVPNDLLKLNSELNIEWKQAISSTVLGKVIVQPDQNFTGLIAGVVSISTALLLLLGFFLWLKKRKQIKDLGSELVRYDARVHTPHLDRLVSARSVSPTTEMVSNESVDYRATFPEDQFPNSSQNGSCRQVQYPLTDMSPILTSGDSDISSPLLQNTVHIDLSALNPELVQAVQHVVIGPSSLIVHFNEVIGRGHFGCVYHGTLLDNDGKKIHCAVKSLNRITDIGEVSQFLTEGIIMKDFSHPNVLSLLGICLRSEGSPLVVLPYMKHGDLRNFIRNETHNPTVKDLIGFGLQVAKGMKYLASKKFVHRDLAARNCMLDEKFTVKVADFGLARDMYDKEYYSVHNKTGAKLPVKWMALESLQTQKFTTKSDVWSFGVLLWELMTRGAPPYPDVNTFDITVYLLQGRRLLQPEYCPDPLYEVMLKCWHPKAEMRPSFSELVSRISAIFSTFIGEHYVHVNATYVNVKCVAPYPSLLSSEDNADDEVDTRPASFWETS

[26] = molecular target: Serine/threonine-protein kinase 4 (Homo sapiens) (UniProt Q13043); conditions: Compound concentration 1000.0 nM
Chain of Serine/threonine-protein kinase 4 (Homo sapiens) (Q13043 whole entry): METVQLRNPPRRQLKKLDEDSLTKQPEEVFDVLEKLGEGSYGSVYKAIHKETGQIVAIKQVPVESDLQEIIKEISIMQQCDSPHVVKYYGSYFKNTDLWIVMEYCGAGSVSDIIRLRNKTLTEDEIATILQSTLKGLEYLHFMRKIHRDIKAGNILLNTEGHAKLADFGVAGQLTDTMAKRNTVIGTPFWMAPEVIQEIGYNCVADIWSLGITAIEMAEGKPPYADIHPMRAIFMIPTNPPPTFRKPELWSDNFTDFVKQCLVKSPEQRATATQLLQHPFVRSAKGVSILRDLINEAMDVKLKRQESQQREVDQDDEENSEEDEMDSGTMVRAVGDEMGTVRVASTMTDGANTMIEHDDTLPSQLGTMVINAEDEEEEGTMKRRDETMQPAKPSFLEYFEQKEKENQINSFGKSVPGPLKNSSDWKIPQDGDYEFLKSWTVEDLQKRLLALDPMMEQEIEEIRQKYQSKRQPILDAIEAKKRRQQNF

[27] = molecular target: Myosin-IIIa (Homo sapiens) (UniProt Q8NEV4); conditions: Compound concentration 1000.0 nM
[28] = molecular target: Serine/threonine-protein kinase Nek1 (Homo sapiens) (UniProt Q96PY6); conditions: Compound concentration 1000.0 nM
[29] = molecular target: Mitogen-activated protein kinase kinase kinase 14 (Homo sapiens) (UniProt Q99558); conditions: Compound concentration 1000.0 nM
[30] = molecular target: Serine/threonine-protein kinase PAK 1 (Homo sapiens) (UniProt Q13153); conditions: Compound concentration 1000.0 nM
[31] = molecular target: Serine/threonine-protein kinase PAK 3 (Homo sapiens) (UniProt O75914); conditions: Compound concentration 1000.0 nM
[32] = molecular target: Serine/threonine-protein kinase PLK2 (Homo sapiens) (UniProt Q9NYY3); conditions: Compound concentration 1000.0 nM
[33] = molecular target: Protein kinase C eta type (Homo sapiens) (UniProt P24723); conditions: Compound concentration 1000.0 nM
[34] = molecular target: Serine/threonine-protein kinase D2 (Homo sapiens) (UniProt Q9BZL6); conditions: Compound concentration 1000.0 nM
[35] = molecular target: Rho-associated protein kinase 2 (Homo sapiens) (UniProt O75116); conditions: Compound concentration 1000.0 nM
[36] = molecular target: Ribosomal protein S6 kinase alpha-1 (Homo sapiens) (UniProt Q15418); conditions: Compound concentration 1000.0 nM
[37] = molecular target: Serine/threonine-protein kinase Sgk2 (Homo sapiens) (UniProt Q9HBY8); conditions: Compound concentration 1000.0 nM
[38] = molecular target: STE20-like serine/threonine-protein kinase (Homo sapiens) (UniProt Q9H2G2); conditions: Compound concentration 1000.0 nM
[39] = molecular target: Serine/threonine-protein kinase 33 (Homo sapiens) (UniProt Q9BYT3); conditions: Compound concentration 1000.0 nM
[40] = molecular target: Tyrosine-protein kinase SYK (Homo sapiens) (UniProt P43405); conditions: Compound concentration 1000.0 nM
[41] = molecular target: Dual specificity testis-specific protein kinase 1 (Homo sapiens) (UniProt Q15569); conditions: Compound concentration 1000.0 nM
[42] = molecular target: Angiopoietin-1 receptor (Homo sapiens) (UniProt Q02763); conditions: Compound concentration 1000.0 nM
[43] = molecular target: Serine/threonine-protein kinase TNNI3K (Homo sapiens) (UniProt Q59H18); conditions: Compound concentration 1000.0 nM
Chain of Serine/threonine-protein kinase TNNI3K (Homo sapiens) (Q59H18 whole entry): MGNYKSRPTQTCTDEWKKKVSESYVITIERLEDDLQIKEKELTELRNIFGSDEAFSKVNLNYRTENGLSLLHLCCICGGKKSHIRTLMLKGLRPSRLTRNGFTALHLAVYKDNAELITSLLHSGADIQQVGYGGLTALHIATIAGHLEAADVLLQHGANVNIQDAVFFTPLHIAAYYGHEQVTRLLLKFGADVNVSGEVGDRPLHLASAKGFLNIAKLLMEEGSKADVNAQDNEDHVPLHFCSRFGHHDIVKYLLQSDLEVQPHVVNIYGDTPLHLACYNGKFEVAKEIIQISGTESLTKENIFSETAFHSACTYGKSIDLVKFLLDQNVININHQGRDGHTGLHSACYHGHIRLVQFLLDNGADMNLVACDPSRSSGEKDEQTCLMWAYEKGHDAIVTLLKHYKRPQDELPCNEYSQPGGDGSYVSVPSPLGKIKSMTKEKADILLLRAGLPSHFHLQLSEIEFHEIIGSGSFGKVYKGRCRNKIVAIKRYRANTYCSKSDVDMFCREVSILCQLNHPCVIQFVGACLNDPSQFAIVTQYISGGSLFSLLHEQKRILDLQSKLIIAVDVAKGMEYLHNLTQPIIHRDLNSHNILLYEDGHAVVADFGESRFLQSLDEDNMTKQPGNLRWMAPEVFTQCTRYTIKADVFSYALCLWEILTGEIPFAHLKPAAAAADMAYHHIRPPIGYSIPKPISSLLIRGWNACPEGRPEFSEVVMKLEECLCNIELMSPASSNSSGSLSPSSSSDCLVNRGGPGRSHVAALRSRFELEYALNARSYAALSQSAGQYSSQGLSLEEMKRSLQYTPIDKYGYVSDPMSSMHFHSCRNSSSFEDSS

[44] = molecular target: Serine/threonine-protein kinase ULK3 (Homo sapiens) (UniProt Q6PHR2); conditions: Compound concentration 1000.0 nM
[45] = molecular target: 5-hydroxytryptamine receptor 1B (Homo sapiens) (UniProt P28222); conditions: Compound concentration 10.0 uM
[46] = molecular target: Histamine H4 receptor (Homo sapiens) (UniProt Q9H3N8); conditions: Compound concentration 10.0 uM

COc1cc(-c2cn([C@H]3CCc4c(F)cccc4N(CC(F)(F)F)C3=O)nn2)ccc1-n1cnc(C)c1
residual activity [1]: 100% | residual activity [2]: 52% | residual activity [3]: 85% | residual activity [4]: 0% | residual activity [5]: 93% | residual activity [6]: 100% | residual activity [7]: 100% | residual activity [8]: 100% | residual activity [9]: 99% | residual activity [10]: 100% | residual activity [11]: 100% | residual activity [12]: 100% | residual activity [13]: 100% | residual activity [14]: 100% | residual activity [15]: 100% | residual activity [16]: 100% | residual activity [17]: 98% | residual activity [18]: 100% | residual activity [19]: 100% | residual activity [20]: 89% | residual activity [21]: 100% | residual activity [22]: 100% | residual activity [23]: 100% | residual activity [24]: 92% | residual activity [25]: 100% | residual activity [26]: 100% | residual activity [27]: 100% | residual activity [28]: 100% | residual activity [29]: 86% | residual activity [30]: 93% | residual activity [31]: 100% | residual activity [32]: 100% | residual activity [33]: 100% | residual activity [34]: 100% | residual activity [35]: 100% | residual activity [36]: 81% | residual activity [37]: 95% | residual activity [38]: 100% | residual activity [39]: 100% | residual activity [40]: 100% | residual activity [41]: 100% | residual activity [42]: 100% | residual activity [43]: 100% | residual activity [44]: 63% | inhibition [45]: 35% | inhibition [46]: -2.49%

COc1cc(-c2cn([C@H]3CCc4ccccc4N(CC(F)(F)F)C3=O)nn2)ccc1-n1ccc(C)n1
residual activity [1]: 100% | residual activity [2]: 47% | residual activity [3]: 77% | residual activity [4]: 100% | residual activity [5]: 93% | residual activity [6]: 100% | residual activity [7]: 100% | residual activity [8]: 100% | residual activity [9]: 100% | residual activity [10]: 87% | residual activity [11]: 100% | residual activity [12]: 100% | residual activity [13]: 84% | residual activity [14]: 100% | residual activity [15]: 100% | residual activity [16]: 100% | residual activity [17]: 100% | residual activity [18]: 89% | residual activity [19]: 100% | residual activity [20]: 99% | residual activity [21]: 100% | residual activity [22]: 90% | residual activity [23]: 82% | residual activity [24]: 64% | residual activity [25]: 100% | residual activity [26]: 100% | residual activity [27]: 100% | residual activity [28]: 100% | residual activity [29]: 69% | residual activity [30]: 100% | residual activity [31]: 100% | residual activity [32]: 100% | residual activity [33]: 73% | residual activity [34]: 86% | residual activity [35]: 100% | residual activity [36]: 82% | residual activity [37]: 100% | residual activity [38]: 100% | residual activity [39]: 100% | residual activity [40]: 100% | residual activity [41]: 93% | residual activity [42]: 81% | residual activity [43]: 100% | residual activity [44]: 61% | inhibition [45]: 30.8% | inhibition [46]: 9.63%
